Tests used:
Type in all cases: cell-based
adenosine A2b receptor = biological target: T1, adenosine A2b receptor (Homo sapiens, UniProt P29275); assay: Indirect determination of adenosine agonism by gene expression (luciferase reporter), A2b cells; conditions: CHO cells stably transfected with A2b receptor cDNA; 50% of maximum stimulation
T1 construct: expressed in transfected cells; host or cells: CHO (Chinese Hamster Ovary)
T1 sequence (P29275 1-332): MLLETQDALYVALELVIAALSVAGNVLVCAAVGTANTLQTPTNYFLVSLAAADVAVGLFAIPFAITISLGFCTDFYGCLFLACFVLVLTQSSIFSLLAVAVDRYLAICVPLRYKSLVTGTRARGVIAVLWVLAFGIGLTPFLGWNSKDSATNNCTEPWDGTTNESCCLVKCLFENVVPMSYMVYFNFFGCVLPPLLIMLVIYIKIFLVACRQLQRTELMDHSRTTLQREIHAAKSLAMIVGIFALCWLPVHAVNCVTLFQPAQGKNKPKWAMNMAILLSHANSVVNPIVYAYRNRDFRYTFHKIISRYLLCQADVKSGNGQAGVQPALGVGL
Excerpt: (§1) Cells of the CHO (Chinese Hamster Ovary) permanent cell line are transfected stably with the cDNA for the adenosine receptor subtypes A1, A2a and A2b. The adenosine A1 receptors are coupled to the adenylate cyclase by way of Gi proteins, while the adenosine A2a and A2b receptors are coupled by way of Gs proteins. In correspondence with this, the formation of cAMP in the cell is inhibited or stimulated, respectively. After that, expression of the luciferase is modulated by way of a cAMP-dependent promoter. The luciferase test is optimized, with the aim of high sensitivity and reproducibility, low variance and good suitability for implementation on a robot system, by varying several test parameters, such as cell density, duration of the growth phase and the test incubation, forskolin concentration and medium composition. The following test protocol is used for pharmacologically characterizing cells and for the robot-assisted substance screening:
(§2) The stock cultures are grown, at 37° C. and under 5% CO2, in DMEM/F12 medium containing 10% FCS (fetal calf serum) and in each case split 1:10 after 2-3 days. The test cultures are seeded in 384-well plates with 2000 cells per well and grown at 37° C. for approx. 48 hours. The medium is then replaced with a physiological sodium chloride solution (130 mM sodium chloride, 5 mM potassium chloride, 2 mM calcium chloride, 20 mM HEPES, 1 mM magnesium chloride hexahydrate, 5 mM sodium bicarbonate, pH 7.4). The substances to be tested, which are dissolved in DMSO, are pipetted into the test cultures (maximum final concentration of DMSO in the test mixture: 0.5%) in a dilution series of from 5×10^−11M to 3×10^−6M (final concentration). 10 minutes later, forskolin is added to the A1 cells and all the cultures are subsequently incubated at 37° C. for four hours. After that, 35 μl of a solution which is composed of 50% lysis reagent (30 mM disodium hydrogenphosphate, 10% glycerol, 3% TritonX100, 25 mM TrisHCl, 2 mM dithiotreitol (DTT), pH 7.8) and 50% luciferase substrate solution (2.5 mM ATP, 0.5 mM luciferin, 0.1 mM coenzyme A, 10 mM tricine, 1.35 mM magnesium sulfate, 15 mM DTT, pH 7.8) are added to the test cultures, which are shaken for approx. 1 minute and the luciferase activity is measured using a camera system. The EC50 values are determined, i.e., the concentrations at which 50% of the luciferase answer is inhibited in the case of the A1 cell, and, respectively, 50% of the maximum stimulation with the corresponding substance is achieved in the case of the A2b and A2a cells. […] Pharmacol., 357 (1998), 1-9].

adenosine A1 receptor = biological target: T2, adenosine A1 receptor (Homo sapiens, UniProt P30542); assay: Indirect determination of adenosine agonism by gene expression (luciferase reporter), A1 cells; conditions: CHO cells stably transfected with A1 receptor cDNA; 1 μM forskolin; 50% inhibition of luciferase answer
T2 construct: expressed in transfected cells; host or cells: CHO (Chinese Hamster Ovary)
T2 sequence (P30542 1-326): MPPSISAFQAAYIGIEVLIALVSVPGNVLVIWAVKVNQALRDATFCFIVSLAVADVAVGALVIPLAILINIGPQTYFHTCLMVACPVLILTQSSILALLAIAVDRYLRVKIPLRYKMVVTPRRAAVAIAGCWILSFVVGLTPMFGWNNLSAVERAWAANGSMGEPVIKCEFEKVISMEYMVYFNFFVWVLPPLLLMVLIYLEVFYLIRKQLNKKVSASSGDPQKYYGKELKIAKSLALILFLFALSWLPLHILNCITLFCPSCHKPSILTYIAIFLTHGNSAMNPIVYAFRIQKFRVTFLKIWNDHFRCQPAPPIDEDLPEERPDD
Excerpt: as §1, §2

adenosine A2a receptor = biological target: T3, adenosine A2a receptor (Homo sapiens, UniProt P29274); assay: Indirect determination of adenosine agonism by gene expression (luciferase reporter), A2a cells; conditions: CHO cells stably transfected with A2a receptor cDNA; 50% of maximum stimulation
T3 construct: expressed in transfected cells; host or cells: CHO (Chinese Hamster Ovary)
T3 sequence (P29274 whole entry): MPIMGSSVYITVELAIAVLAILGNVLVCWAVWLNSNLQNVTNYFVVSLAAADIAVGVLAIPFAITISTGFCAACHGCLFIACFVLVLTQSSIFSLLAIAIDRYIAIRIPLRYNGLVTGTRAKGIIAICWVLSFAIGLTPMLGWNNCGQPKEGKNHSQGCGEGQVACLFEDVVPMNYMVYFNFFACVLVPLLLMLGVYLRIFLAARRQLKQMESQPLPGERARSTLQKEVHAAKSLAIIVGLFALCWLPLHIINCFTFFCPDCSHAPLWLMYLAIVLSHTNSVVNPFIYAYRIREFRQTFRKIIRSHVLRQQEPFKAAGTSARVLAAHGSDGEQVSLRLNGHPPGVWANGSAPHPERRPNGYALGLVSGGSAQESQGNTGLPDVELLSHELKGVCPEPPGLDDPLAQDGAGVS
Excerpt: as §1, §2

SMILES: N#Cc1c(N)nc(SCc2csc(Nc3ccc(F)cc3)n2)c(C#N)c1-c1ccc(O[C@H]2COC[C@@H]2O)cc1 (single isomer, unassigned) [Example 35, ent-trans-2-Amino-6-[({2-[(4-fluorophenyl)amino]-1,3-thiazol-4-yl}methyl)thio]-4-(4-{[4-hydroxytetrahydrofuran-3-yl]oxy}phenyl)pyridine-3,5-dicarbonitrile]
- EC50 (adenosine A2b receptor): 43 nM
- EC50 (adenosine A1 receptor): 0.56 nM
- EC50 (adenosine A2a receptor): 874 nM

SMILES: COC(=O)c1cccc(C(C)Sc2nc(N)c(C#N)c(-c3ccc(OC4CCOC4)cc3)c2C#N)c1 (single isomer, unassigned; ent-3) [Example 64, Methyl ent-3-[1-({6-amino-3,5-dicyano-4-[4-(tetrahydrofuran-3-yloxy)phenyl]pyridin-2-yl}sulfanyl)ethyl]benzoate]
- EC50 (adenosine A1 receptor): 4.1 nM

SMILES: N#Cc1c(N)nc(SCc2csc(-c3ccc(Cl)cc3)n2)c(C#N)c1-c1ccc(O[C@H]2COC[C@@H]2O)cc1 (racemic) [Example 24, rac-trans-2-Amino-6-({[2-(4-chlorophenyl)-1,3-thiazol-4-yl]methyl}thio)-4-(4-{[4-hydroxytetrahydrofuran-3-yl]oxy}phenyl)pyridine-3,5-dicarbonitrile]
- EC50 (adenosine A1 receptor): 0.14 nM
- EC50 (adenosine A2a receptor): 506 nM

SMILES: Cc1oc(-c2ccc(C(=O)O)cc2)nc1CSc1nc(N)c(C#N)c(-c2ccc(OC3CCOC3)cc2)c1C#N (racemic) [Example 49, rac-4-{4-[({6-Amino-3,5-dicyano-4-[4-(tetrahydrofuran-3-yloxy)phenyl]pyridin-2-yl}thio)methyl]-5-methyl-1,3-oxazol-2-yl}benzoic acid]
- EC50 (adenosine A1 receptor): 0.22 nM
- EC50 (adenosine A2a receptor): 782 nM

SMILES: N#Cc1c(N)nc(SCc2c[nH]cn2)c(C#N)c1-c1ccc(O[C@H]2CCCC[C@@H]2O)cc1 [Example 10]
- EC50 (adenosine A2b receptor): 4.3 nM
- EC50 (adenosine A1 receptor): 265 nM

SMILES: N#Cc1c(N)nc(SCc2cccc(C(N)=O)c2)c(C#N)c1-c1ccc(OC2CCOC2)c(F)c1 (stereo not shown) [Example 58]
- EC50 (adenosine A2b receptor): 1010 nM
- EC50 (adenosine A1 receptor): 0.63 nM
- EC50 (adenosine A2a receptor): 909 nM

SMILES: N#Cc1c(N)nc(SCc2ccccn2)c(C#N)c1-c1ccc(O[C@H]2COC[C@@H]2O)cc1 (single isomer, unassigned) [Example 32, ent-trans-2-Amino-4-(4-{[4-hydroxytetrahydrofuran-3-yl]oxy}phenyl)-6-[(pyridin-2-ylmethyl)thio]pyridine-3,5-dicarbonitrile]
- EC50 (adenosine A2b receptor): 720 nM
- EC50 (adenosine A1 receptor): 0.86 nM
- EC50 (adenosine A2a receptor): 144 nM

SMILES: N#Cc1c(N)nc(SCc2csc(C(N)=O)n2)c(C#N)c1-c1ccc(OC2CCOC2)cc1 (racemic) [Example 50, rac-4-[({6-Amino-3,5-dicyano-4-[4-(tetrahydrofuran-3-yloxy)phenyl]pyridin-2-yl}sulfanyl)methyl]-1,3-thiazole-2-carboxamide]
- EC50 (adenosine A2b receptor): 556 nM
- EC50 (adenosine A1 receptor): 0.78 nM
- EC50 (adenosine A2a receptor): 1100 nM

SMILES: N#Cc1c(N)nc(SCc2cscn2)c(C#N)c1-c1ccc(O[C@H]2CCCC[C@@H]2O)cc1 [Example 14]
- EC50 (adenosine A2b receptor): 16 nM
- EC50 (adenosine A1 receptor): 56 nM
- EC50 (adenosine A2a receptor): 1920 nM

SMILES: N#Cc1ccccc1CSc1nc(N)c(C#N)c(-c2ccc(O[C@H]3CCCC[C@@H]3O)cc2)c1C#N (single isomer, unassigned) [Example 23, ent-trans-2-Amino-6-[(2-cyanobenzyl)sulfanyl]-4-(4-{[2-hydroxycyclohexyl]oxy}-phenyl)pyridine-3,5-dicarbonitrile]
- EC50 (adenosine A2b receptor): 6.9 nM
- EC50 (adenosine A1 receptor): 168 nM
- EC50 (adenosine A2a receptor): 518 nM

SMILES: CNC(=O)c1cc(CSc2nc(N)c(C#N)c(-c3ccc(OC4CCOC4)cc3)c2C#N)ccn1 (stereo not shown) [Example 44]
- EC50 (adenosine A2b receptor): 234 nM
- EC50 (adenosine A1 receptor): 0.08 nM
- EC50 (adenosine A2a receptor): 69 nM

SMILES: N#Cc1c(N)nc(SCc2cccc(C(N)=O)c2)c(C#N)c1-c1ccc(OC2CCOC2)cc1 (stereo not shown) [Example 43]
- EC50 (adenosine A2b receptor): 537 nM
- EC50 (adenosine A1 receptor): 0.16 nM
- EC50 (adenosine A2a receptor): 424 nM

SMILES: N#Cc1c(N)nc(SCc2csc(N)n2)c(C#N)c1-c1ccc(O[C@H]2CCCC[C@@H]2O)cc1 [Example 9]
- EC50 (adenosine A2b receptor): 3.9 nM
- EC50 (adenosine A1 receptor): 104 nM

SMILES: N#Cc1c(N)nc(SCc2cccnc2)c(C#N)c1-c1ccc(O[C@H]2CCCC[C@@H]2O)cc1 [Example 8]
- EC50 (adenosine A2b receptor): 2.4 nM
- EC50 (adenosine A1 receptor): 6.9 nM
- EC50 (adenosine A2a receptor): 497 nM

SMILES: CC(Sc1nc(N)c(C#N)c(-c2ccc(OC3CCOC3)cc2)c1C#N)c1cccc(C(N)=O)c1 (single isomer, unassigned; ent-3) [Example 66, ent-3-[1-({6-Amino-3,5-dicyano-4-[4-(tetrahydrofuran-3-yloxy)phenyl]pyridin-2-yl}-sulfanyl)ethyl]benzamide]
- EC50 (adenosine A2b receptor): 1780 nM
- EC50 (adenosine A1 receptor): 0.53 nM

SMILES: N#Cc1c(N)nc(SCc2cccnc2)c(C#N)c1-c1ccc(O[C@H]2CCC[C@H]2O)cc1 (racemic) [Example 41, rac-cis-2-Amino-4-(4-{[2-hydroxycyclopentyl]oxy}phenyl)-6-[(pyridin-3-ylmethyl)sulfanyl]pyridine-3,5-dicarbonitrile]
- EC50 (adenosine A2b receptor): 11 nM
- EC50 (adenosine A1 receptor): 2.9 nM
- EC50 (adenosine A2a receptor): 480 nM

SMILES: N#Cc1c(SCc2csc(-c3ccc(Cl)cc3)n2)nc(N2CC(O)C2)c(C#N)c1-c1ccc(O[C@H]2COC[C@@H]2O)cc1 (single isomer, unassigned) [Example 29, ent-trans-2-({[2-(4-Chlorophenyl)-1,3-thiazol-4-yl]methyl}sulfanyl)-6-(3-hydroxyazetidin-1-yl)-4-(4-{[4-hydroxytetrahydrofuran-3-yl]oxy}phenyl)pyridine-3,5-dicarbonitrile]
- EC50 (adenosine A1 receptor): 0.18 nM
- EC50 (adenosine A2a receptor): 1270 nM

SMILES: CNC(=O)c1nc(CSc2nc(N)c(C#N)c(-c3ccc(OC4CCOC4)cc3)c2C#N)cs1 (racemic) [Example 51, rac-4-[({6-Amino-3,5-dicyano-4-[4-(tetrahydrofuran-3-yloxy)phenyl]pyridin-2-yl}sulfanyl)methyl]-N-methyl-1,3-thiazole-2-carboxamide]
- EC50 (adenosine A2b receptor): 177 nM
- EC50 (adenosine A1 receptor): 0.51 nM
- EC50 (adenosine A2a receptor): 261 nM
